Measured values from US20240216357A1 (SICHUAN HUIYU PHARMACEUTICAL CO., LTD., priority 2021, published 2024).
Where a name gives a salt, the structure may show the parent alone. Read-outs that look alike come from different tables or passages of the source.

Tests used:
LSD1 = LSD1 (Homo sapiens (Human), UniProt O60341); assay: LSD1 enzyme activity detection (HTRF); type: biochemical; settings: read-out: Inhibition of enzymatic activity of LSD1 IC50
NCI-H1417 cells = assay: In vitro cell proliferation detection (CellTiter-Glo, 7 days); type: cell-based; settings: Homo sapiens
[1] = 168 h, NCI-H1417 cells, 7 days, CellTiter-Glo, read-out: NCI-H1417 proliferation inhibition IC50

## COc1ccc(-c2cnc(N3CC4CCC3CC4N)c(C#N)c2-c2ccc(C#N)c(F)c2)cc1O (stereo not shown) [Example 76, 2-(5-amino-2-azabicyclo[2.2.2]octane-2-yl)-4-(4-cyano-3-fluorophenyl)-5-(3-hydroxy-4-methoxyphenyl) nicotinonitrile]
LSD1; HTRF, H3K4me1 substrate
  IC50: 4.9 ± 2.5 nM
NCI-H1417 cells; [1]
  IC50: 1.37 nM

## COc1ccc(-c2cnc(N3CCC(N)C(F)C3)c(C#N)c2-c2ccc(C#N)c(F)c2)cc1O (stereo not shown) [Example 77, 2-(4-amino-3-fluoropiperidin-1-yl)-4-(4-cyano-3-fluorophenyl)-5-(3-hydroxy-4-methoxyphenyl) nicotinonitrile]
LSD1; HTRF, H3K4me1 substrate
  IC50: 2.4 ± 0.9 nM
NCI-H1417 cells; [1]
  IC50: 2.19 nM

## COc1ccc(-c2cnc(N3CCC[C@@H](N)C3)c(C#N)c2-c2ccc(C#N)c(F)c2)cc1O [Example 78, (R)-2-(3-aminopiperidin-1-yl)-4-(4-cyano-3-f1uorophenyl)-5-(3-hydroxy-4-methoxyphenyl) nicotinonitrile]
LSD1; HTRF, H3K4me1 substrate
  IC50: 1.6 ± 0.3 nM
NCI-H1417 cells; [1]
  IC50: 2.53 nM

## COc1ccc(-c2cnc(N3CC(N)C3)c(C#N)c2-c2ccc(C#N)c(F)c2)cc1O [Example 82, 2-(3-aminoazetidin-1-yl)-4-(4-cyano-3-fluorophenyl)-5-(3-hydroxy-4-methoxyphenyl) nicotinonitrile]
LSD1; HTRF, H3K4me1 substrate
  IC50: 12.9 ± 0.2 nM
NCI-H1417 cells; [1]
  IC50: 72.4 nM

## Cn1ccc(-c2cnc(N3CCC(N)CC3)c(C#N)c2-c2ccc(C#N)c(F)c2)cc1=O [Example 83, 6-(4-aminopiperidin-1-yl)-4-(4-cyano-3-fluorophenyl)-1′-methyl-2′-oxo-1′,2′-dihydro-[3,4′-bipyridine]-5-carbonitrile hydrochloride]
LSD1; HTRF, H3K4me1 substrate
  IC50: 35.4 nM
NCI-H1417 cells; [1]
  IC50: 630 nM

## Cn1cc2cc(-c3cnc(N4CCC(N)CC4)c(C#N)c3-c3ccc(C#N)c(F)c3)ccc2n1 [Example 84, 2-(4-aminopiperidin-1-yl)-4-(4-cyano-3-fluorophenyl)-5-(2-methyl-2H-indazol-5-yl) nicotinonitrile hydrochloride]
LSD1; HTRF, H3K4me1 substrate
  IC50: 2.18 nM
NCI-H1417 cells; [1]
  IC50: 4.91 nM

## N#Cc1ccc(-c2c(-c3ccc(N4CCOCC4)c(O)c3)cnc(N3CCC(N)CC3)c2C#N)cc1F [Example 85, 2-(4-aminopiperidin-1-yl)-4-(4-cyano-3-fluorophenyl)-5-(3-hydroxy-4-morpholinophenyl) nicotinonitrile hydrochloride]
LSD1; HTRF, H3K4me1 substrate
  IC50: 0.6 nM
NCI-H1417 cells; [1]
  IC50: 0.76 nM

## CC(C)(O)COc1ccc(-c2cnc(N3CCC(N)CC3)c(C#N)c2-c2ccc(C#N)c(F)c2)cc1O [Example 86, hydrochloride]
LSD1; HTRF, H3K4me1 substrate
  IC50: 0.147 nM
NCI-H1417 cells; [1]
  IC50: 0.63 nM

## COc1cc(N2CCC(N)CC2)nc(-c2ccc(C#N)c(F)c2)c1-c1ccc(F)c(O)c1 [Example 91, 4-(6-(4-aminopiperidin-1-yl)-3-(4-fluoro-3-hydroxyphenyl)-4-methoxypyridin-2-yl)-2-fluorobenzonitrile]
LSD1; HTRF, H3K4me1 substrate
  IC50: 1.1 ± 0.3 nM
NCI-H1417 cells; [1]
  IC50: 1.82 nM

## COc1ccc(-c2c(OC)cc(N3CCC(N)CC3)nc2-c2ccc(C#N)c(F)c2)cc1C#N [Example 93, 4-(6-(4-aminopiperidin-1-yl)-3-(3-cyano-4-methoxyphenyl)-4-methoxypyridin-2-yl)-2-fluorobenzonitrile]
LSD1; HTRF, H3K4me1 substrate
  IC50: 153 nM
NCI-H1417 cells; [1]
  IC50: 30.7 nM

## COc1cc(N2CCC(N)CC2)nc(-c2ccc(C#N)c(F)c2)c1-c1ccc(C#N)c(F)c1 [Example 94, 4,4′-(6-(4-aminopiperidin-1-yl)-4-methoxypyridin-2,3-diyl)bis(2-fluorobenzonitrile)]
LSD1; HTRF, H3K4me1 substrate
  IC50: 24.9 nM
NCI-H1417 cells; [1]
  IC50: 104 nM

## COc1ccc(-c2c(OC)cc(N3CCNCC3)nc2-c2ccc(C#N)c(F)c2)cc1O [Example 96, 2-fluoro-4-(3-(3-hydroxy-4-methoxyphenyl)-4-methoxy-6-(piperazinyl)pyridin-2-yl)benzonitrile hydrochloride]
LSD1; HTRF, H3K4me1 substrate
  IC50: 3 ± 0.6 nM
NCI-H1417 cells; [1]
  IC50: 11.8 nM

## COc1cc(-c2c(OC)cc(N3CCC(N)CC3)nc2-c2ccc(C#N)c(F)c2)ccc1O [Example 97, 4-(6-(4-aminopiperidin-1-yl)-3-(4-hydroxy-4-methoxyphenyl)-4-methoxypyridin-2-yl)-2-fluorobenzonitrile]
LSD1; HTRF, H3K4me1 substrate
  IC50: 88.5 nM
NCI-H1417 cells; [1]
  IC50: 185 nM

## COc1cc(N2CCC(N)CC2)nc(-c2ccc(C#N)c(F)c2)c1-c1ccc(C(F)(F)F)c(O)c1 [Example 99, 4-(6-(4-aminopiperidin-1-yl)-3-(3-hydroxy-4-(trifluoromethyl)phenyl)-4-methoxypyridin-2-yl)-2-fluorobenzonitrile hydrochloride]
LSD1; HTRF, H3K4me1 substrate
  IC50: 4.9 ± 1.2 nM
NCI-H1417 cells; [1]
  IC50: 1.72 nM

## COc1cc(N2CCN(C)CC2)nc(-c2ccc(C#N)c(F)c2)c1-c1ccc(C)c(O)c1 [Example 100, 2-fluoro-4-(3-(3-hydroxy-4-methylphenyl)-4-methoxy-6-(4-methylpiperazin-1-yl)pyridin-2-yl) benzonitrile]
LSD1; HTRF, H3K4me1 substrate
  IC50: 8.9 ± 0.3 nM
NCI-H1417 cells; [1]
  IC50: 3.18 nM

## COc1ccc(-c2c(-c3ccc(C#N)c(F)c3)nc(N3CCC(N)CC3)c(C)c2OC)cc1O [Example 101, 4-(6-(4-aminopiperidin-1-yl)-3-(3-hydroxy-4-methoxyphenyl)-4-methoxy-5-methylpyridin-2-yl)-2-fluorobenzonitrile]
LSD1; HTRF, H3K4me1 substrate
  IC50: 1 ± 0.2 nM
NCI-H1417 cells; [1]
  IC50: 0.917 nM

## CCOc1cc(N2CCC(N)CC2)nc(-c2ccc(C#N)c(F)c2)c1-c1ccc(OC)c(O)c1 [Example 103, 4-(6-(4-aminopiperidin-1-yl)-4-ethoxy-3-(3-hydroxy-4-methoxyphenyl)pyridin-2-yl)-2-fluorobe nzonitrile]
LSD1
  IC50: 0.6 ± 0.2 nM
NCI-H1417 cells; NCI-H1417, 168 h, read-out: NCI-H1417 proliferation inhibition IC50(nM)
  IC50: 6.27 nM

## COc1ccc(-c2c(OC(F)F)cc(N3CCC(N)CC3)nc2-c2ccc(C#N)c(F)c2)cc1O [Example 106, 4-(6-(4-aminopiperidin-1-yl)-4-(difluoromethoxy)-3-(3-hydroxy-4-methoxyphenyl)pyridin-2-yl)-2-fluorobenzonitrile]
LSD1; HTRF, H3K4me1 substrate
  IC50: 1.2 ± 0.7 nM
NCI-H1417 cells; [1]
  IC50: 0.594 nM

## COc1ccc(-c2c(OCC3CCC3)cc(N3CCC(N)CC3)nc2-c2ccc(C#N)c(F)c2)cc1O [Example 107, 4-(6-(4-aminopiperidin-1-yl)-4-(cyclobutylmethoxy)-3-(3-hydroxy-4-methoxyphenyl)pyridin-2-yl)-2-fluorobenzonitrile hydrochloride]
LSD1; HTRF, H3K4me1 substrate
  IC50: 2.5 ± 1.7 nM
NCI-H1417 cells; [1]
  IC50: 8.35 nM

## COc1ccc(-c2c(OCC3CC3)cc(N3CCC(N)CC3)nc2-c2ccc(C#N)c(F)c2)cc1O [Example 108, 4-(6-(4-aminopiperidin-1-yl)-4-(cyclopropylmethoxy)-3-(3-hydroxy-4-methoxyphenyl)pyridin-2-yl)-2-fluorobenzonitrile hydrochloride]
LSD1; HTRF, H3K4me1 substrate
  IC50: 1.5 ± 0.7 nM
NCI-H1417 cells; [1]
  IC50: 4.02 nM

## COc1ccc(-c2c(OCC3COC3)cc(N3CCC(N)CC3)nc2-c2ccc(C#N)c(F)c2)cc1O [Example 109, 4-(6-(4-aminopiperidin-1-yl)-3-(3-hydroxy-4-methoxyphenyl)-4-(oxetane-3-yl-methoxy)pyridin-2-yl)-2-fluorobenzonitrile hydrochloride]
LSD1; HTRF, H3K4me1 substrate
  IC50: 4 ± 1.7 nM
NCI-H1417 cells; [1]
  IC50: 16 nM

## COc1ccc(-c2c(C(N)=O)nc(N3CCC(N)CC3)nc2-c2ccc(C#N)c(F)c2)cc1F [Example 110, 2-(4-aminopiperidin-1-yl)-6-(4-cyano-3-fluorophenyl)-5-(3-fluoro-4-methoxyphenyl)pyrimidine-4-carboxamide hydrochloride]
LSD1; HTRF, H3K4me1 substrate
  IC50: 3.2 ± 0.37 nM
NCI-H1417 cells; [1]
  IC50: 42.6 nM

## CNC1CCCN(c2nc(OC)c(-c3ccc(OC)c(F)c3)c(-c3ccc(C#N)c(F)c3)n2)C1 (stereo not shown) [Example 114, 2-fluoro-4-(5-(3-fluoro-4-methoxyphenyl)-6-methoxy-2-(3-(methylamino)piperidin-1-yl)pyrimidin-4-yl)benzonitrile hydrochloride]
LSD1
  IC50: 67 nM
NCI-H1417 cells; [1]
  IC50: > 1000 nM

## CNC1CCCN(c2nc(-c3ccc(C#N)c(F)c3)c(-c3ccc(OC)c(F)c3)c3nccn23)C1 (stereo not shown) [Example 119, 2-fluoro-4-(8-(3-fluoro-4-methoxyphenyl)-5-(3-(methylamino)piperidin-1-yl)imidazolo[1,2-c]pyrimidin-7-yl) benzonitrile]
LSD1; HTRF, H3K4me1 substrate
  IC50: 9.54 ± 1.2 nM
NCI-H1417 cells; [1]
  IC50: 39.1 nM

## COc1ccc(C#Cc2c(-c3ccc(C#N)c(F)c3)nc(N3CCC(N)CC3)n3ccnc23)cc1F [Example 122, 4-(5-(4-aminopiperidin-1-yl)-8-(3-fluoro-4-methoxyphenyl)ethynyl)imidazolo [1,2-c]pyrimidin-7-yl)-2-fluorobenzonitrile hydrochloride]
LSD1; HTRF, H3K4me1 substrate
  IC50: 8.68 ± 0.76 nM
NCI-H1417 cells; [1]
  IC50: 30.2 nM

## N#Cc1ccc(-c2nc(N3CCC(N)CC3)n3ccnc3c2-c2ccc3[nH]nc(Cl)c3c2)cc1F [Example 123, 4-(5-(4-aminopiperidin-1-yl)-8-(3-chloro-1H-indazolo-5-yl)imidazolo[1,2-c]pyrimidin-7-yl)-2-fluorobenzonitrile]
LSD1; HTRF, H3K4me1 substrate
  IC50: 28.7 nM
NCI-H1417 cells; [1]
  IC50: 47.6 nM

## CC(C)(O)C#Cc1ccc(-c2c(-c3ccc(C#N)c(F)c3)nc(N3CCC(N)CC3)n3ccnc23)cc1F [Example 126, 4-(5-(4-aminopiperidin-1-yl)-8-(3-fluoro-4-(3-hydroxy-3-methyl-1-alkynyl-1-yl)phenyl)imidazolo[1,2-c]pyrimidin-7-yl)-2-fluorobenzonitrile hydrochloride]
LSD1; HTRF, H3K4me1 substrate
  IC50: 15.9 nM
NCI-H1417 cells; [1]
  IC50: 21.3 nM

## CC(C)(O)Cn1ncc2cc(F)c(-c3c(-c4ccc(C#N)c(F)c4)nc(N4CCC(N)CC4)n4ccnc34)cc21 [Example 127, 4-(5-(4-aminopiperidin-1-yl)-8-(5-fluoro-1-(2-hydroxy-2-methylpropyl)-1H-indazo-6-yl)imidazolo[1,2-c]pyrimidin-7-yl)-2-fluorobenzonitrile hydrochloride]
LSD1; HTRF, H3K4me1 substrate
  IC50: 34.4 nM
NCI-H1417 cells; [1]
  IC50: 135 nM

## N#Cc1ccc(-c2nc(N3CCC(N)CC3)n3ccnc3c2-c2ccc3oc(=O)[nH]c3c2)cc1F [Example 129, 4-(5-(4-aminopiperidin-1-yl)-8-(2-oxo-2,3-dihydrobenzo[d]oxazol-5-yl)imidazolo[1,2-c]pyrimidin-7-yl)-2-fluorobenzonitrile]
LSD1; HTRF, H3K4me1 substrate
  IC50: 0.61 ± 0.13 nM
NCI-H1417 cells; [1]
  IC50: 112 nM
